{
  "source": "patent US7205436B2",
  "about": "“Process for manufacture of quaternary ammonium tosylate salts of cinnamidoalkylamines and / or benzamidoalkylamines” (Galaxy Surfactants Limited, priority 2003, dated 2007)",
  "assay": "UV absorption: molar extinction coefficient in methanol",
  "assay_type": "physicochemical",
  "conditions": "at λmax 310 nm in methanol",
  "data": [
    {"smiles": "CCCCCCCCCCCC[N+](C)(C)CCCNC(=O)C=Cc1ccc(OC)cc1.Cc1ccc(S(=O)(=O)[O-])cc1", "note": "[Example I, p-methoxy cinnamidopropyldimethyllauryl ammonium tosylate]", "values": [
      {"measurement": "molar extinction coefficient, ε", "result": "25,000"}
    ]}
  ]
}
